One may read the IC50 as the concentration at which inhibition is half-maximal. Low readings indicate inhibition by little substance, high ones a need for much substance.

Holding throughout (assay type): cell-based
The target of one test is T1, human TLR8 (Homo sapiens, UniProt Q9NR97).
T1 construct: host or cells: HEK-Blue cells
T1 sequence (Q9NR97 27-1041): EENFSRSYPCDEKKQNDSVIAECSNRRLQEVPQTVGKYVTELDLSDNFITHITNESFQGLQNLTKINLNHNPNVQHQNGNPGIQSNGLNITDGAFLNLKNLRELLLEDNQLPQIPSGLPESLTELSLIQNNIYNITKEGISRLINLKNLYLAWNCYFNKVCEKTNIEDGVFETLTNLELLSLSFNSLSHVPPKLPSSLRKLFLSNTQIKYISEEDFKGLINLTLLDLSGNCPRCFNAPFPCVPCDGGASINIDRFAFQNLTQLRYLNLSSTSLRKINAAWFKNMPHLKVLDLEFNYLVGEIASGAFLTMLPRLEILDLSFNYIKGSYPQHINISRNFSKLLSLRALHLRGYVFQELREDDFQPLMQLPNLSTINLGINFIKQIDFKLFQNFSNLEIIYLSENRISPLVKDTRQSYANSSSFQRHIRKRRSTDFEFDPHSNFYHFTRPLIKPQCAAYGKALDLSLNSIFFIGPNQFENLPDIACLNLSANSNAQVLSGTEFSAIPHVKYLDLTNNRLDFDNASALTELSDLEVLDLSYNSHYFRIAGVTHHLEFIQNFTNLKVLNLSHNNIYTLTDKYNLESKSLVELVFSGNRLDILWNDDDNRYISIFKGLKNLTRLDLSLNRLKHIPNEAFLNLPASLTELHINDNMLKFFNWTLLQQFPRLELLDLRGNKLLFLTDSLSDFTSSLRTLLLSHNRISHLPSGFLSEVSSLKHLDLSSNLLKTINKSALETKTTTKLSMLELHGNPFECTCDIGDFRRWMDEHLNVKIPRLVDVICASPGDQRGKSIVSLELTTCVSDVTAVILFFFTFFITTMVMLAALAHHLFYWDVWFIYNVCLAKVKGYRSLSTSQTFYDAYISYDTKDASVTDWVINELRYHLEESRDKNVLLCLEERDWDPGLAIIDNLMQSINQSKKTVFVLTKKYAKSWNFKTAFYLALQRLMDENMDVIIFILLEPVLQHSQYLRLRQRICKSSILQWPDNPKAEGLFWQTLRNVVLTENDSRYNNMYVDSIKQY
The test is described as follows: TLR8 inhibition reporter assay (HEK-Blue SEAP reporter). Conditions: HEK-Blue cells overexpressing human TLR8; R848 15.9 μM; 22 hour incubation. The procedure, abridged:
(§1)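 Compound treatment: 30 min, RT, 0.05 nM–50 μM final. Agonist: TLR7 gardiquimod 7.5 μM; TLR8 R848 15.9 μM; TLR9 ODN2006 5 nM. Incubation 22 h, 37 °C, 5% CO2. Readout SEAP, HEK-Blue Detection.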

For the next test, the target named is T2, human TLR9 (Homo sapiens, UniProt Q9NR96).
T2 construct: host or cells: HEK-Blue cells
T2 sequence (Q9NR96 26-1032): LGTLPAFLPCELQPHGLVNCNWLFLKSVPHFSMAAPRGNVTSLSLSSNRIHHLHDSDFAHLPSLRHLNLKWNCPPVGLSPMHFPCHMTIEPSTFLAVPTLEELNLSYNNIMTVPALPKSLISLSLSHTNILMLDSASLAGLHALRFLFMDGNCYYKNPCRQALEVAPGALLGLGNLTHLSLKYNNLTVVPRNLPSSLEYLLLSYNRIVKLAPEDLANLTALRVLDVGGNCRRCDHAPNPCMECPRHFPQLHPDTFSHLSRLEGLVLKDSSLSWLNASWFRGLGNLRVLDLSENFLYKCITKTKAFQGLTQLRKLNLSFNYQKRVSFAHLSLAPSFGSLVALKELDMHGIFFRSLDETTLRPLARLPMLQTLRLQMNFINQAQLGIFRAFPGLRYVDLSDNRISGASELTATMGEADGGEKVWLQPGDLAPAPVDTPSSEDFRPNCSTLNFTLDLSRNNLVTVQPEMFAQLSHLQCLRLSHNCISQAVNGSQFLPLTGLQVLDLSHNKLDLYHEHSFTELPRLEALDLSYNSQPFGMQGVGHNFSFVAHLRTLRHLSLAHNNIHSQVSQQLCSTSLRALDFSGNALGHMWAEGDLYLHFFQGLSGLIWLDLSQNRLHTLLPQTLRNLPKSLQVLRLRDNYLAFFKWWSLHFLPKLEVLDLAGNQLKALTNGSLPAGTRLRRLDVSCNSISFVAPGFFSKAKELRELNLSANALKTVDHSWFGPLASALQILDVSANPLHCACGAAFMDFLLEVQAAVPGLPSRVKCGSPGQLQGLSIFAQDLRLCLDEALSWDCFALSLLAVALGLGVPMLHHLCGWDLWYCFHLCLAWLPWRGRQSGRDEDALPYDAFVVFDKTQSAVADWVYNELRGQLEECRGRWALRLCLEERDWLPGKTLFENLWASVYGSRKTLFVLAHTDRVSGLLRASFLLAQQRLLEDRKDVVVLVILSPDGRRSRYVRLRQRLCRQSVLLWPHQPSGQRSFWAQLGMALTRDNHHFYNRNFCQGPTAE
The test is described as follows: TLR9 inhibition reporter assay (HEK-Blue SEAP reporter). The settings on record: HEK-Blue cells overexpressing human TLR9; ODN2006 5 nM; 22 hour incubation. Summed up:
as §1

A further test concerns the target T3, human TLR7 (Homo sapiens, UniProt Q9NYK1).
T3 construct: host or cells: HEK-Blue cells
T3 sequence (Q9NYK1 27-1049): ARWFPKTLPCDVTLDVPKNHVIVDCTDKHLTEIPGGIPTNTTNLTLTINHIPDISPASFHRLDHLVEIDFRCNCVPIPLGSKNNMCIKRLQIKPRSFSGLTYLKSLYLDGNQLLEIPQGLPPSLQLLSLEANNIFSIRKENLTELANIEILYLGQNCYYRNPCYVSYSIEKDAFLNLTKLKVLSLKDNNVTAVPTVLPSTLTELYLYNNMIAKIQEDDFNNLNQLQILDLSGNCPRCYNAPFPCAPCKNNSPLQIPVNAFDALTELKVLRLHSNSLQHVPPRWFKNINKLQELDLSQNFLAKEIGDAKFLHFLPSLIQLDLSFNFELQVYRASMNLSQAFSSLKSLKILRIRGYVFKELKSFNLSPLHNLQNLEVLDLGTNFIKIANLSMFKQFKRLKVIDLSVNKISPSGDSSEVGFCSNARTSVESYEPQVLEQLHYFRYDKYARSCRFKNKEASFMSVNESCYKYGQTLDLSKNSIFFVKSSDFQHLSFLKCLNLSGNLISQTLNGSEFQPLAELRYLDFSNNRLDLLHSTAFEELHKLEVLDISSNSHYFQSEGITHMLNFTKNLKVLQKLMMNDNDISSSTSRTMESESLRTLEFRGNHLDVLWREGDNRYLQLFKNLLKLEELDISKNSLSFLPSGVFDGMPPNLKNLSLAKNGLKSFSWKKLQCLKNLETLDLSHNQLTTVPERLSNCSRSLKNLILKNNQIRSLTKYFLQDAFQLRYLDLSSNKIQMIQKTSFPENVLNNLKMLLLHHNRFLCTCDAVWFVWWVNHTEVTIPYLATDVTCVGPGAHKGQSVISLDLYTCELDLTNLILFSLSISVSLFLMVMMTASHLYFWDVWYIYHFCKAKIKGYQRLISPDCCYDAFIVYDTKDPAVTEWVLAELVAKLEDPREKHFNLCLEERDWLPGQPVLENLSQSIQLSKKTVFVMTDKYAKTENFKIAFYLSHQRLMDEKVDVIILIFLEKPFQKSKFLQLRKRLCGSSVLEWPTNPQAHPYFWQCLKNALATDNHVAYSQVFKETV
As to the kind of experiment: TLR7 inhibition reporter assay (HEK-Blue SEAP reporter). The settings on record: HEK-Blue cells overexpressing human TLR7; gardiquimod 7.5 μM; 22 hour incubation. Summed up:
as §1

Regarding `CCc1c(-c2ccc(OC)c(OC)c2)[nH]c2ccc(N3CCN(CCNC)CC3(C)C)cc12` [Example 150, 2-(4-(2-(3,4-dimethoxyphenyl)-3-ethyl-1H-indol-5-yl)-3,3-dimethylpiperazin-1-yl)-N-methylethan-1-amine], the IC50 at human TLR8 was 102 nM; on human TLR9 it was 425 nM; against human TLR7 it was 360 nM.

For `COc1ccc(-c2[nH]c3ccc(N4CCCCC4c4ccncc4)cc3c2C(C)C)cc1OC` (stereo not drawn) [Example 113, 2-(3,4-dimethoxyphenyl)-3-isopropyl-5-(2-(pyridin-4-yl)piperidin-1-yl)-1H-indole], the values for the IC50 at human TLR8, on human TLR9 and on human TLR7 were 1280 nM, more than 50000 nM and 1200 nM, respectively.

`COc1ccc(-c2[nH]c3ccc(N(C)CC4CCCN4C)cc3c2C(C)C)cc1OC` (stereo not drawn) [Example 104, 2-(3,4-dimethoxyphenyl)-3-isopropyl-N-methyl-N-((1-methylpyrrolidin-2-yl)methyl)-1H-indol-5-amine]: the results for the IC50 at human TLR8, against human TLR9 and against human TLR7 were 9.7 nM, 6820 nM and 1310 nM, respectively.

Turning to `COc1ccc(-c2[nH]c3ccc(NC(=O)[C@@H](N)CCCN)cc3c2C(C)C)cc1OC` [Example 20, (S)-2,5-diamino-N-(2-(3,4-dimethoxyphenyl)-3-isopropyl-1H-indol-5-yl)pentanamide], the IC50 against human TLR8 is 106 nM; at human TLR9, more than 50000 nM; on human TLR7, 125 nM.

Regarding `CCc1c(-c2ccnc(OC)c2)[nH]c2ccc(N3CCN(C4CC(C)(C)NC(C)(C)C4)CC3)cc12` [Example 161, 3-ethyl-2-(2-methoxypyridin-4-yl)-5-(4-(2,2,6,6-tetramethylpiperidin-4-yl)piperazin-1-yl)-lH-indole], the IC50 stood at 8.1 nM against human TLR8, 243 nM on human TLR9 and 63 nM against human TLR7.

For the compound `Cc1c(-c2[nH]c3ccc(N4CCC(N(C)C)CC4)cc3c2C(C)C)cn(C)c(=O)c1Cl` [Example 111, 3-chloro-5-(5-(4-(dimethylamino)piperidin-1-yl)-3-isopropyl-H-indol-2-yl)-1,4-dimethyl-114,215-pyridin-2-one], the IC50 at human TLR8 is 1.8 nM; at human TLR9, 3460 nM; on human TLR7 it was 2.4 nM.

On to `COc1ccc(-c2[nH]c3ccc(N4CCC(N5CCNCC5)CC4)cc3c2C(C)C)cc1OC` [Example 73, 2-(3,4-dimethoxyphenyl)-3-isopropyl-5-(4-(piperazin-1-yl)piperidin-1-yl)-1H-indole], for which the IC50 is 65 nM on human TLR8, 2110 nM against human TLR9 and 63 nM against human TLR7.

For the compound `COc1ccc(-c2[nH]c3ccc(NC4CC(C)(C)N(C)C(C)(C)C4)cc3c2C(C)C)cc1OC` [Example 103, 2-(3,4-dimethoxyphenyl)-3-isopropyl-N-(1,2,2,6,6-pentamethylpiperidin-4-yl)-1H-indol-5-amine], the IC50 on human TLR8 amounted to 8.2 nM; against human TLR9, 2670 nM; at human TLR7, 1120 nM.

On to `COc1ccc(-c2[nH]c3ccc(N4CC5CCCNC5C4)cc3c2C(C)C)cc1OC` (stereo not drawn) [Example 135, 6-(2-(3,4-dimethoxyphenyl)-3-isopropyl-1H-indol-5-yl)octahydro-1H-pyrrolo[3,4-b]pyridine], for which the IC50 at human TLR8 was 95 nM; on human TLR9, 2460 nM; against human TLR7, 774 nM.

For `CC(C)c1c(-c2ccnc3[nH]ncc23)[nH]c2ccc(NC(=O)[C@H]3CCNC3)cc12` [Example 10, (S)—N-(3-isopropyl-2-(1H-pyrazolo[3,4-b]pyridin-4-yl)-1H-indol-5-yl)pyrrolidine-3-carboxamide], the IC50 on human TLR8 came out at 96 nM; against human TLR9, 7720 nM; on human TLR7 it was 73 nM.

On to `COc1ccc(-c2[nH]c3ccc(NC(=O)CN)cc3c2C(C)C)cc1OC` [Example 11, 2-amino-N-(2-(3,4-dimethoxyphenyl)-3-isopropyl-1H-indol-5-yl)acetamide], for which the half-inhibitory concentration (IC50) on human TLR8 came out at 17 nM; against human TLR9, 8600 nM; against human TLR7, 290 nM.

`CCc1c(-c2ccc(OC)c(OC)c2)[nH]c2ccc(N3CCC4(CCN(C)CC4)CC3)cc12` [Example 181, 3-(2-(3,4-dimethoxyphenyl)-3-ethyl-1H-indol-5-yl)-9-methyl-3,9-diazaspiro[5.5]undecane]: the IC50 at human TLR8 worked out at 74 nM; against human TLR9 it was 517 nM; on human TLR7, 54 nM.

For the compound `CC(C)c1c(-c2ccnc3[nH]ccc23)[nH]c2ccc(N3CCN(C4CCN(C(C)C)CC4)CC3)cc12` [Example 166, 4-(3-isopropyl-5-(4-(1-isopropylpiperidin-4-yl)piperazin-1-yl)-1H-indol-2-yl)-1H-pyrrolo[2,3-b]pyridine], the IC50 was 0.05 nM on human TLR8, 318 nM on human TLR9 and 6.2 nM on human TLR7.

In the case of `CCc1c(-c2ccnc3c2ccn3C)[nH]c2ccc(N3CCN(C4CCN(C(C)C)CC4)CC3)cc12` [Example 165, 4-(3-ethyl-5-(4-(1-isopropylpiperidin-4-yl)piperazin-1-yl)-1H-indol-2-yl)-1-methyl-H-pyrrolo[2,3-b] pyridine], the IC50 at human TLR8 worked out at 9400 nM; on human TLR9 it was 685 nM; on human TLR7, 5900 nM.

For the origin of these results see patent US11306092B2, “Amino indole compounds useful as TLR inhibitors” (BRISTOL-MYERS SQUIBB COMPANY, priority 2017, dated 2022).
